The source of these data is PMC2644050 (The Journal of pharmacology and experimental therapeutics, 2008).

The target in assay [1] is T1, human muscarinic M4 receptor (CHO M4) (Homo sapiens, UniProt P08173).
T1 sequence (P08173 1-479): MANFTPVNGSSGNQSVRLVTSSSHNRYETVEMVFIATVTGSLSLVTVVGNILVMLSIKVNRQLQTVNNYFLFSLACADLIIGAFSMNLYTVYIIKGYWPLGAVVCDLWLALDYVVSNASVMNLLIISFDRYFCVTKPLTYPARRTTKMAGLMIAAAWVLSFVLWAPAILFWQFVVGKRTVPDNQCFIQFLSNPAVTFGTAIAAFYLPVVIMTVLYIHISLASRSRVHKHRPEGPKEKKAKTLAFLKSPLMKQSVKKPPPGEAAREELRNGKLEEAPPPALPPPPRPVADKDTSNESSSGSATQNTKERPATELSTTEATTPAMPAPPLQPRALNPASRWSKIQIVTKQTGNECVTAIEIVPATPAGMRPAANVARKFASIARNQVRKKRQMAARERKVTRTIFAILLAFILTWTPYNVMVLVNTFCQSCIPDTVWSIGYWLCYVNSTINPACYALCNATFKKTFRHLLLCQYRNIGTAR
Put plainly: inhibition of forskolin-stimulated cAMP accumulation, [3H]adenine pre-labeling. Type of assay: cell-based. The settings on record: CHO M4 cells, Gi pathway, 10 μM forskolin; agonist. (In general: Changes in cAMP serve as a functional read-out for many G protein-coupled receptors.)

Assay [2] addresses T2, human muscarinic M1 receptor (CHO M1) (Homo sapiens, UniProt P11229).
T2 sequence (P11229 1-460): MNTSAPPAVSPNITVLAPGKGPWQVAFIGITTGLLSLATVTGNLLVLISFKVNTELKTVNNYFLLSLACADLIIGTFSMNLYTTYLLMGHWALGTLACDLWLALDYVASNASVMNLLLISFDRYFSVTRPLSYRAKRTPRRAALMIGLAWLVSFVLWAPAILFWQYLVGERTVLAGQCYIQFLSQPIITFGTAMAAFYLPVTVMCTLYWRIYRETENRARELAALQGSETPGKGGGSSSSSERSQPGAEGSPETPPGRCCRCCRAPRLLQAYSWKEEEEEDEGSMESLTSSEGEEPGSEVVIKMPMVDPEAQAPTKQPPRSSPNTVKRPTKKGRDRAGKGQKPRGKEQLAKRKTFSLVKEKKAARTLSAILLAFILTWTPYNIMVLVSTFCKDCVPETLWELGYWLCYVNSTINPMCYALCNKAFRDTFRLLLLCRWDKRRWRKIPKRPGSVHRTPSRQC
Put plainly: stimulation of phosphoinositide hydrolysis, [3H]inositol pre-labeling. The class given is cell-based.

Take `C[N+](C)(C)CC#CCN1CCCC1=O` [oxotremorine-M]: the “EC50 (μM)” value is 0.030 (−7.52 ± .07) μM in assay [1] and 0.041 (−7.39 ± .05) μM in assay [2].
